Like-named read-outs stand apart in the source and are kept apart here.
Key:
Format in all cases: biochemical
CDK1/CCNB1 = CDK1/CCNB1 (Homo sapiens, UniProt P06493); experiment: CDK1 homogeneous time-resolved fluorescence (HTRF) kinase assay; details: CDK1/CCNB
Method in brief: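 Compounds, titrated 11 points in half-log steps typically from 10 μM, were incubated with enzyme for 20 min before ATP (1 mM) and ULight-labelled eIF4E-binding protein 1 peptide (50 nM) started a 60-min reaction at 23 °C. Phosphopeptide was detected by europium-antibody TR-FRET and IC50 values were derived.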

CDK6/CCND1 = CDK6/CCND1 (Homo sapiens, UniProt Q00534); experiment: CDK6 homogeneous time-resolved fluorescence (HTRF) kinase assay; details: CDK6/CCND, 1 mM ATP
Sequence of CDK6/CCND1 (Q00534 whole entry): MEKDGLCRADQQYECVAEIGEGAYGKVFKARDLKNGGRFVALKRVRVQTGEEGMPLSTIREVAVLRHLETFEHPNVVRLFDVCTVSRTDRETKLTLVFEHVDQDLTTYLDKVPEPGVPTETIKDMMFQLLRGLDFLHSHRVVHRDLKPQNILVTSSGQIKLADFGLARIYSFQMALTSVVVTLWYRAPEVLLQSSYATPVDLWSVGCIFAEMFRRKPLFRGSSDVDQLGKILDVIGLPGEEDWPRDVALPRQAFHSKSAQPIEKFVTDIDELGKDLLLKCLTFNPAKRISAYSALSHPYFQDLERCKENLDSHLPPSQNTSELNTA
Sequence of CDK6/CCND1 (P24385 whole entry partner): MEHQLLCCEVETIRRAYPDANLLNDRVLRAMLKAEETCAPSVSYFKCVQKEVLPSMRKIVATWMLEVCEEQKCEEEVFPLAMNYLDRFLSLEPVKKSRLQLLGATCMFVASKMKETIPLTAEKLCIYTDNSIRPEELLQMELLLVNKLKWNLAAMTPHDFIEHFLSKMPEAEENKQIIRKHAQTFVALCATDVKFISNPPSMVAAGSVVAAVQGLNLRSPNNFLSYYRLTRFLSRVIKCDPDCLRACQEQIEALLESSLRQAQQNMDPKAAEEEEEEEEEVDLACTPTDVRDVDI
Method in brief: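 1 nM enzyme, 1 mM ATP, 50 nM ULight-4E-BP1 (Thr37/46) peptide, 1% DMSO; 20 min compound preincubation, 60 min reaction, 23 °C. EDTA stop, 2 nM Eu-anti-phospho-4E-BP1 antibody 60 min. TR-FRET 665 nm (or 665/615 ratio); IC50 from 11-point half-log titration, top 10 μM.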

CDK4/CCND3 = CDK4/CCND3 (Homo sapiens, UniProt P11802); experiment: CDK4 homogeneous time-resolved fluorescence (HTRF) kinase assay; details: CDK4/CCND
Sequence of CDK4/CCND3 (P11802 whole entry): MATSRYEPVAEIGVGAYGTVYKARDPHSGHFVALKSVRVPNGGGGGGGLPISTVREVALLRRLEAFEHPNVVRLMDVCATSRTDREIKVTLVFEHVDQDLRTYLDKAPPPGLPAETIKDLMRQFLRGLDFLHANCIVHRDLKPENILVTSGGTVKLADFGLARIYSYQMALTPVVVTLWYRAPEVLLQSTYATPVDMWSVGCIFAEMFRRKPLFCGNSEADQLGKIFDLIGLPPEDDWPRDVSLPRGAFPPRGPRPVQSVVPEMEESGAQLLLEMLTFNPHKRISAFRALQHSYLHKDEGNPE
Sequence of CDK4/CCND3 (P30281 whole entry partner): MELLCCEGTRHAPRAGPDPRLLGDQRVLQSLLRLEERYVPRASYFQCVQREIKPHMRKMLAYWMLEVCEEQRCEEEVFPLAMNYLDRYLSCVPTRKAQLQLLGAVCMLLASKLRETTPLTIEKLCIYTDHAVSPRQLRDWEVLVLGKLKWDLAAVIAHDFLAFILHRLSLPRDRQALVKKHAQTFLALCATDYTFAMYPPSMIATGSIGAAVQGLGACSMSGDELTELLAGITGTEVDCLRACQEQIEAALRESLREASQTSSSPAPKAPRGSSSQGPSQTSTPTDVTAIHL
Method in brief: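 Inhibition of CDK4/CCND3 (1.5 nM) was measured at high ATP (1 mM) using 50 nM ULight-labelled 4E-BP1 Thr37/46 peptide; detection used 2 nM europium anti-phospho antibody after EDTA quench. IC50 values came from 11-point half-log titrations typically starting at 10 μM.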

CDK2/CCNE1 = CDK2/CCNE1 (Homo sapiens, UniProt P24941); experiment: CDK2 homogeneous time-resolved fluorescence (HTRF) kinase assay; details: CDK2/CCNE
Method in brief: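 Compounds were titrated 11-point, half-log from typically 10 μM against 3 nM CDK2/cyclin E1 at 1 mM ATP, with a 20 min enzyme preincubation. Phosphorylation of 50 nM ULight-4E-BP1 peptide over 60 min at 23 °C was detected by europium anti-phospho antibody TR-FRET.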

[1] = >250 nM, read-out: CDK1/CCNB IC50 >250 nM
[2] = >250 nM, read-out: CDK6/CCND IC50, >250 nM
[3] = >250 nM, read-out: CDK4/CCND IC50, >250 nM
[4] = 25-250 nM, read-out: CDK2/CCNE IC50, 25-250 nM
[5] = 25-250 nM, read-out: CDK6/CCND IC50, 25-250 nM
[6] = 25-250 nM, read-out: CDK4/CCND IC50, 25-250 nM
[7] = <25 nM, read-out: CDK2/CCNE IC50, <25 nM
[8] = 25-250 nM, read-out: CDK1/CCNB IC50, 25-250 nM

Sequence of CDK1/CCNB1 (P06493 whole entry): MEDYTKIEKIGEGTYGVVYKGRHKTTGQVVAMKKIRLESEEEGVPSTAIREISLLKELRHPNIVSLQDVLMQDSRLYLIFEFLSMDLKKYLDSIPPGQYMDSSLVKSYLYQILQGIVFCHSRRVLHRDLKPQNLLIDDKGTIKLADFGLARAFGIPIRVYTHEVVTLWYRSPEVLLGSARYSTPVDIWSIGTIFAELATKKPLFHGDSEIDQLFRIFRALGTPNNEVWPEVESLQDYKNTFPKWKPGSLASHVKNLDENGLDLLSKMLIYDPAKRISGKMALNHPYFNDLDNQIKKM
Sequence of CDK1/CCNB1 (P14635 whole entry partner): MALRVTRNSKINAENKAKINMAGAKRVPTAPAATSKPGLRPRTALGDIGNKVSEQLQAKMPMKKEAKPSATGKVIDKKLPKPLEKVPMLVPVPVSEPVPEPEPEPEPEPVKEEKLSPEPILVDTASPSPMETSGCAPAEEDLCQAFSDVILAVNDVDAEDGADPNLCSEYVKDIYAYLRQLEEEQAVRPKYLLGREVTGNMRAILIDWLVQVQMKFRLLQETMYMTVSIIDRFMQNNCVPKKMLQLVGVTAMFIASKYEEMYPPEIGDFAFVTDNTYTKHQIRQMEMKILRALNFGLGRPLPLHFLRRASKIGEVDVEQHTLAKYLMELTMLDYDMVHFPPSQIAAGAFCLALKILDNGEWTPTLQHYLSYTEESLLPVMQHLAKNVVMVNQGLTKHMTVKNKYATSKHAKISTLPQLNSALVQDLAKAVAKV

IC50 (CDK1/CCNB1; [1]) [nM]	IC50 (CDK6/CCND1; [2]) [nM]	IC50 (CDK4/CCND3; [3]) [nM]	IC50 (CDK2/CCNE1; [4]) [nM]	IC50 (CDK6/CCND1; [5]) [nM]	IC50 (CDK4/CCND3; [6]) [nM]	IC50 (CDK2/CCNE1; [7]) [nM]	IC50 (CDK1/CCNB1; [8]) [nM]	Structure (SMILES)
> 250	> 250	> 250	25 to 250	–	–	–	–	Cc1c(-c2nccc3cnc(Nc4ccc(S(=O)(=O)Nc5nccc(C(F)(F)F)n5)cc4)cc23)ccc2c1cnn2CC(O)(C(F)(F)F)C(F)(F)F [Ex 744, 4-((5-(4-methyl-1-(3,3,3-trifluoro-2-hydroxy-2-(trifluoromethyl)propyl)-1H-indazol-5-yl)-2,6-naphthyridin-3-yl)amino)-N-(4-(trifluoromethyl)pyrimidin-2-yl)benzenesulfonamide]
> 250	> 250	> 250	25 to 250	–	–	–	–	COc1cc(OC)nc(NS(=O)(=O)c2ccc(Nc3cc4c(-c5ccc6c(cnn6CC(O)(C(F)(F)F)C(F)(F)F)c5C)nccc4cn3)cc2)n1 [Ex 745, N-(4,6-dimethoxypyrimidin-2-yl)-4-((5-(4-methyl-1-(3,3,3-trifluoro-2-hydroxy-2-(trifluoromethyl)propyl)-1H-indazol-5-yl)-2,6-naphthyridin-3-yl)amino)benzenesulfonamide]
> 250	–	–	–	25 to 250	25 to 250	< 25	–	Cc1c(-c2nccc3cnc(Nc4ccc(S(=O)(=O)N[C@@H](C)CCO)cc4)cc23)ccc2c1cnn2CC(C)(C)O [Ex 746, (S)-4-((5-(1-(2-hydroxy-2-methylpropyl)-4-methyl-1H-indazol-5-yl)-2,6-naphthyridin-3-yl)amino)-N-(4-hydroxybutan-2-yl)benzenesulfonamide]
> 250	–	–	–	25 to 250	25 to 250	< 25	–	Cc1c(-c2nccc3cnc(Nc4ccc(S(=O)(=O)N[C@H](C)CCO)cc4)cc23)ccc2c1cnn2CC(C)(C)O [Ex 747, (R)-4-((5-(1-(2-hydroxy-2-methylpropyl)-4-methyl-1H-indazol-5-yl)-2,6-naphthyridin-3-yl)amino)-N-(4-hydroxybutan-2-yl)benzenesulfonamide]
> 250	> 250	> 250	–	–	–	< 25	–	Cc1c(-c2nccc3cnc(Nc4ccc(NS(=O)(=O)c5nccs5)cc4)cc23)ccc2c1cnn2CC(C)(C)O [Ex 748, N-(4-((5-(1-(2-hydroxy-2-methylpropyl)-4-methyl-1H-indazol-5-yl)-2,6-naphthyridin-3-yl)amino)phenyl)thiazole-2-sulfonamide]
> 250	> 250	> 250	25 to 250	–	–	–	–	Cc1c(-c2nccc3cnc(Nc4ccc(S(C)(=O)=O)c(Br)c4)cc23)ccc2c1cnn2CC(C)(C)O [Ex 749, 1-(5-(7-((3-bromo-4-(methylsulfonyl)phenyl)amino)-2,6-naphthyridin-1-yl)-4-methyl-1H-indazol-1-yl)-2-methylpropan-2-ol]
> 250	> 250	> 250	25 to 250	–	–	–	–	Cc1c(-c2nccc3cnc(Nc4ccc(S(C)(=O)=O)cc4Br)cc23)ccc2c1cnn2CC(C)(C)O [Ex 750, 1-(5-(7-((2-bromo-4-(methylsulfonyl)phenyl)amino)-2,6-naphthyridin-1-yl)-4-methyl-1H-indazol-1-yl)-2-methylpropan-2-ol]
> 250	> 250	> 250	–	–	–	< 25	–	Cc1c(-c2nccc3cnc(Nc4ccc(NS(=O)(=O)c5cccc(N6CCN(C)CC6)c5)cc4)cc23)ccc2c1cnn2CC(C)(C)O [Ex 751, N-(4-((5-(1-(2-hydroxy-2-methylpropyl)-4-methyl-1H-indazol-5-yl)-2,6-naphthyridin-3-yl)amino)phenyl)-3-(4-methylpiperazin-1-yl)benzenesulfonamide]
> 250	> 250	> 250	–	–	–	< 25	–	Cc1c(-c2nccc3cnc(Nc4ccc(NS(=O)(=O)c5cccc(N6CCOCC6)c5)cc4)cc23)ccc2c1cnn2CC(C)(C)O [Ex 753, N-(4-((5-(1-(2-hydroxy-2-methylpropyl)-4-methyl-1H-indazol-5-yl)-2,6-naphthyridin-3-yl)amino)phenyl)-3-morpholinobenzenesulfonamide]
–	–	–	–	25 to 250	25 to 250	< 25	25 to 250	Cc1c(-c2nccc3cnc(Nc4ccc(NS(=O)(=O)c5cccnn5)cc4)cc23)ccc2c1cnn2CC(C)(C)O [Ex 754, N-(4-((5-(1-(2-hydroxy-2-methylpropyl)-4-methyl-1H-indazol-5-yl)-2,6-naphthyridin-3-yl)amino)phenyl)pyridazine-3-sulfonamide]
> 250	> 250	> 250	–	–	–	< 25	–	Cc1c(-c2nccc3cnc(Nc4ccc(S(=O)(=O)Nc5nccc(N6CCN(CCO)CC6)n5)cc4)cc23)ccc2c1cnn2CC(O)(C(F)(F)F)C(F)(F)F [Ex 755, N-(4-(4-(2-hydroxyethyl)piperazin-1-yl)pyrimidin-2-yl)-4-((5-(4-methyl-1-(3,3,3-trifluoro-2-hydroxy-2-(trifluoromethyl)propyl)-1H-indazol-5-yl)-2,6-naphthyridin-3-yl)amino)benzenesulfonamide]
> 250	> 250	> 250	–	–	–	< 25	–	Cc1c(-c2nccc3cnc(Nc4ccc(S(=O)(=O)Nc5nccc(N6CCN(C)CC6)n5)cc4)cc23)ccc2c1cnn2CC(O)(C(F)(F)F)C(F)(F)F [Ex 756, 4-((5-(4-methyl-1-(3,3,3-trifluoro-2-hydroxy-2-(trifluoromethyl)propyl)-1H-indazol-5-yl)-2,6-naphthyridin-3-yl)amino)-N-(4-(4-methylpiperazin-1-yl)pyrimidin-2-yl)benzenesulfonamide]
> 250	> 250	> 250	25 to 250	–	–	–	–	Cc1c(-c2ncc(F)c3cnc(Nc4ccc(S(C)(=O)=O)cc4)cc23)ccc2c1cnn2CC(O)(C(F)(F)F)C(F)(F)F [Ex 757, 1,1,1,3,3,3-hexafluoro-2-((5-(4-fluoro-7-((4-(methylsulfonyl)phenyl)amino)-2,6-naphthyridin-1-yl)-4-methyl-1H-indazol-1-yl)methyl)propan-2-ol]
> 250	> 250	> 250	25 to 250	–	–	–	–	Cc1c(-c2nccc3cnc(Nc4ccc(S(=O)(=O)NC5CCCCC5)cc4)cc23)ccc2c1cnn2CC(C)(C)O [Ex 758, N-cyclohexyl-4-((5-(1-(2-hydroxy-2-methylpropyl)-4-methyl-1H-indazol-5-yl)-2,6-naphthyridin-3-yl)amino)benzenesulfonamide]
> 250	> 250	> 250	–	–	–	< 25	–	Cc1ccnc(NS(=O)(=O)c2ccc(Nc3cc4c(-c5ccc6c(cnn6CC(O)(C(F)(F)F)C(F)(F)F)c5C)nccc4cn3)cc2)n1 [Ex 759, 4-((5-(4-methyl-1-(3,3,3-trifluoro-2-hydroxy-2-(trifluoromethyl)propyl)-1H-indazol-5-yl)-2,6-naphthyridin-3-yl)amino)-N-(4-methylpyrimidin-2-yl)benzenesulfonamide]
–	–	–	–	25 to 250	25 to 250	< 25	25 to 250	Cc1c(-c2nccc3cnc(Nc4ccc(S(=O)(=O)NC5CCN(CCO)CC5)cc4)cc23)ccc2c1cnn2CC(C)(C)O [Ex 762, 4-((5-(1-(2-hydroxy-2-methylpropyl)-4-methyl-1H-indazol-5-yl)-2,6-naphthyridin-3-yl)amino)-N-(1-(2-hydroxyethyl)piperidin-4-yl)benzenesulfonamide]
–	–	–	–	25 to 250	25 to 250	< 25	25 to 250	Cc1c(-c2nccc3cnc(Nc4ccc(S(=O)(=O)NC5CCN(C)CC5)cc4)cc23)ccc2c1cnn2CC(C)(C)O [Ex 763, 4-((5-(1-(2-hydroxy-2-methylpropyl)-4-methyl-1H-indazol-5-yl)-2,6-naphthyridin-3-yl)amino)-N-(1-methylpiperidin-4-yl)benzenesulfonamide]
> 250	–	–	–	25 to 250	25 to 250	< 25	–	Cc1c(-c2nccc3cnc(Nc4ccc(S(=O)(=O)NC5CCNCC5)cc4)cc23)ccc2c1cnn2CC(C)(C)O [Ex 764, 4-((5-(1-(2-hydroxy-2-methylpropyl)-4-methyl-1H-indazol-5-yl)-2,6-naphthyridin-3-yl)amino)-N-(piperidin-4-yl)benzenesulfonamide]

Reference: patent US20260325533A1, “CDK INHIBITOR COMPOUNDS” (ALEKSIA THERAPEUTICS, INC., priority 2023, published 2026)
